Legend:
[1] = tested on: VM-NSCs; test: DA neuron differentiation (TH+ cell yield) of in vitro expanded VM-NSCs; type: cell-based, rat
Procedure: NSCs were cultured from rat embryo VMs (Sprague Dawley) at embryonic day 12 (E12) on 6-cm dishes or 24-well plates pre-coated with 15 μg/ml poly-L-ornithine (PLO; Sigma)/1 ug/ml fibronectin (FN; Sigma, St. Louis, Mo.) in serum-free N2 medium. NSCs were induced to proliferate by the mitogenic action of basic fibroblast growth factor (bFGF, 20 ng/ml, R&D Systems, Minneapolis, Minn.). The proliferating VM-NSCs cultured in 6-cm dishes were passaged at every 4th day in mitogen-supplemented medium with or without Vitamin C (VC; Sigma; 200 μM), glutathione reduced form (GSH; Sigma; 200 μM), vitamin E (alpha-tocopherol; Sigma; 200 μM), or N-acetylcysteine (NAc; Sigma; 100 μM). The expanded NSCs at the last day of each passage were induced to differentiate by withdrawing the mitogen and antioxidants from the media (for 2-16 days). Human NSC cultures were derived by in vitro differentiation of hESCs (H9) and cultured as described in the following reference. [Rhee, Y. H., Ko, J. Y., Chang, M. Y., Yi, S. H., Kim, D., Kim, C. H., Shim, J. W., Jo, A. Y., Kim, B. W., Lee, H., et al. (2011). Protein-based human iPS cells efficiently generate functional dopamine neurons and can treat a rat model of Parkinson disease. The Journal of clinical investigation 121, 2326-2335]. The human NSCs were expanded in ITS media supplemented with bFGF (20 ng/ml) in the presence or absence of VC for two NSC passages. Differentiation of the passaged human NSCs was induced by withdrawal of bFGF and VC in ITS supplemented with brain-derived neurotrophic factor (20 ng/ml; R&D Systems), glial cell line derived neurotrophic factor (20 ng/ml; R&D Systems), and dibutyryl cAMP (0.5 mmol/1; Sigma). Cultures were maintained at 37° C. in humidified 5% CO2 incubators.
(§1) Cultured cells and cryosectioned brain slices were fixed with 4% paraformaldehyde (PFA), and blocked for 40 minutes in blocking solution (Blocking solution: 1% BSA+0.3% Triton X-100). For 5hmC and 5mC staining, the fixed cells were incubated with 2 N HCl for 20 minutes before the blocking reaction. The samples were incubated overnight at 4° C. in the blocking solution containing the primary antibodies listed in Supplemental Table 1. Secondary antibodies tagged with Alexa 488 (1:200, Invitrogen, Carlsbad, Calif.) and Cy3 (1:200, Jackson Immunoresearch Laboratories, West Grove, Pa.) were applied. Stained samples were mounted in Vectashield medium containing 40,6-diamidino-2-phenylindole (DAPI; Vector Laboratories, West Grove, Pa.) and analysed under an epifluorescence (Leica, Wetzlar, Germany) or confocal microscope (Leica TSP SP5).
Immunostained cells were counted in 10-20 random areas of each culture coverslip using an eyepiece grid at a magnification of 200×. Data are expressed as the mean±SEM of three to eight independent cultures. […]

[2] = tested on: human TH promoter regions; test: DIP-qPCR/ChIP-qPCR on human TH promoter; type: cell-based
From the text: (§2) Foxa2 and Nurr1 binding sites were identified using the Jaspar database (http://jaspar.genereg.net/) using an 80% score threshold. Predicted Foxa2 and Nurr1 binding sites were coupled with phylogenetic footprinting to eliminate spurious predictions with specified position weight matrix (PWM) settings, as described in the following reference. [Sandelin, A., and Wasserman, W. W. (2004). Constrained binding site diversity within families of transcription factors enhances pattern discovery bioinformatics. Journal of molecular biology 338, 207-215] (Table 2). ChIP and DIP assays were carried out as described in the following reference. [Prolonged membrane depolarization enhances midbrain dopamine neuron differentiation via epigenetic histone modifications. Stem Cells 29, 1861-1873]. Briefly, chromatin or genomic DNA was sheared to an average of 200-500 bp in length using a sonication Bioruptor (BMS, Seoul, Korea) and immunoprecipitated using the antibodies listed in Table 1. Immunoprecipitated DNA fragments were collected using magnetic beads (Invitrogen), purified, and subjected to real-time PCR using the primers listed in Table 3. The comparative cycle threshold method was used to quantify the results. Data were normalized to the input DNA.

[3] = tested on: GAD67, TPH2 and GFAP promoters; test: DIP-qPCR and ChIP-qPCR on GAD67, TPH2 and GFAP promoters; type: cell-based, rat; details: VC administration to proliferating VM-NSCs
From the text: as §2

[4] = tested on: Foxa2 and Lmx1a promoters; test: DIP-qPCR and ChIP-qPCR on Foxa2 and Lmx1a promoters; type: cell-based, rat
From the text: as §2

[5] = tested on: VM-NSCs; test: Cell growth curves and population doubling level during NSC expansion; type: cell-based, rat; details: up to P1
Procedure: The cell growth profile during NSC expansion with several cell passages was generated by counting the number of viable cells at the end of each passage. Cell expansion of each NSC passage was further estimated by the population doubling level (PDL, the level at which the number of cells is doubled), which was determined by log(N/NO)/log 2 (where N is the number of cells at the end of each passage; NO is the number of cells plated initially (1×10^5 cells/cm^2)). DA neuronal cell survival in the absence or presence of toxic insults (500-1000 uM of H2O2 or 6-OHDA) was determined by counting viable TH^+ cells after staining. General cell death and DNA damage were estimated by ethidium heterodimer 1 (EthD1) (Molecular Probes) and γH2AX staining, respectively.

[6] = tested on: TH+ DA neurons differentiated from VM-NSCs; test: Co-expression of midbrain-specific markers in differentiated TH+ DA neurons; type: cell-based, rat; details: P1 cultures treated with VC during expansion, D6
Procedure: as §1
Immunostained cells were counted in 10-20 random areas of each culture coverslip using an eyepiece grid at a magnification of 200×. Data are expressed as the mean±SEM of three to eight independent cultures. For every figure, statistical tests are justified as appropriate. Statistical comparisons were made using Student's t-test (unpaired) or one-way ANOVA followed by Tukey's post hoc analysis using SPSS® Statistics 21; IBM Inc. The relevant n, P-values, and statistical analysis methods are indicated in each figure legend.

Q: `O=C1O[C@H]([C@@H](O)CO)C(O)=C1O` [VC, L-ascorbic acid] was tested. Which “expression of other DA phenotypes (VMAT2, AADC and DAT) in TH+ cells” value ([1]; P1, VC during expansion, differentiated 12 days without VC) did it give?
A: The value was “Virtually all”.

Q: What about the “TH+ cell yields (% of total DAPI+ cells)” value ([1]; VC 200 uM during expansion, P1 cultures, differentiated without VC, D6) of the same compound?
A: The value was 10.85±1.2%.

Q: What about the “TH+ DA neuronal yields” value ([1]; VC during expansion, P2 cultures, differentiated without VC) of the same compound?
A: Its value is 1.22±0.1%.

Q: What about the “prevention of DA neuron loss in passaged cultures” value ([1]; antioxidant during expansion for 8 days (up to P1), differentiation without antioxidants) of the same compound?
A: Its value is “prevention of DA neuron loss”.

Q: What about the “H3K9m3/H3K27m3 levels in human TH promoter regions” value [2] of the same compound?
A: The value was “undetectable”.

Q: And the “levels of 5hmC at human TH promoter regions” value ([2]; two consensus Nurr1 binding sites, D6)?
A: The value was “enhanced”.

Q: What about the “epigenetic codes on TPH2 and GAD67 genes” value [3] of the same compound?
A: The value was “did not affect”.

Q: What about the “binding of Tet1, Jmjd3 and Jmjd2 proteins to Foxa2 and Lmx1a promoter regions” value ([4]; ChIP-qPCR, D0) of the same compound?
A: Its value is “increased binding”.

Q: What about the “5mC levels in Foxa2 promoter regions” value ([4]; MeDIP-qPCR, VC-treated NSCs) of the same compound?
A: The value was “reduced”.

Q: And the “5hmC in Foxa2 promoter regions” value ([4]; hMeDIP-qPCR, VC-treated NSCs)?
A: Its value is “more abundant”.

Q: And the “VM-NSC survival and proliferation” value [5]?
A: Its value is “none of the anti-oxidant treatments tested, including VC, significantly altered”.

Q: What about the “TH+ DA neurons expressing Foxa2” value [6] of the same compound?
A: Its value is 98%.

Q: And the “TH+ DA neurons expressing Lmx1a” value [6]?
A: Its value is 91%.

Q: What about the “TH+ DA neurons expressing Nurr1” value [6] of the same compound?
A: The value was 93%.

Reference: patent US20190183939A1, “CELL THERAPY USING MIDBRAIN-TYPE NEURAL STEM CELLS TREATED WITH VITAMIN C” (INDUSTRY-UNIVERSITY COOPERATION FOUNDATION HANYANG …, priority 2017, published 2019)
